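Where inhibition never reached the appropriate level, the endpoint shown equals the highest concentration tested. Otherwise, values were interpolated linearly from a five-concentration, 48-hour dose response in 96-well plates. TGI is the concentration that stops growth completely.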
Key:
Test in all cases: growth of human tumour cells (NCI), 48 h
786-0 renal = test system: 786-0 renal
A498 renal = test system: A498 renal
A549 NSCLC = test system: A549 NSCLC
ACHN renal = test system: ACHN renal
BT-549 breast = test system: BT-549 breast
CAKI-1 renal = test system: CAKI-1 renal
CCRF-CEM leukemia = test system: CCRF-CEM leukemia
COLO 205 colon = test system: COLO 205 colon
DLD-1 colon = test system: DLD-1 colon
DMS 114 small cell lung = test system: DMS 114 small cell lung
DMS 273 small cell lung = test system: DMS 273 small cell lung
DU-145 prostate = test system: DU-145 prostate
EKVX NSCLC = test system: EKVX NSCLC
HCC-2998 colon = test system: HCC-2998 colon
HCT-116 colon = test system: HCT-116 colon
HCT-15 colon = test system: HCT-15 colon
HL-60(TB) leukemia = test system: HL-60(TB) leukemia
HOP-18 NSCLC = test system: HOP-18 NSCLC
HOP-62 NSCLC = test system: HOP-62 NSCLC
HOP-92 NSCLC = test system: HOP-92 NSCLC
HS 578T breast = test system: HS 578T breast
HT29 colon = test system: HT29 colon
IGROV1 ovarian = test system: IGROV1 ovarian
K-562 leukemia = test system: K-562 leukemia
KM12 colon = test system: KM12 colon
KM20L2 colon = test system: KM20L2 colon
LOX IMVI melanoma = test system: LOX IMVI melanoma
LXFL 529 NSCLC = test system: LXFL 529 NSCLC
M14 melanoma = test system: M14 melanoma
M19-MEL melanoma = test system: M19-MEL melanoma
MALME-3M melanoma = test system: MALME-3M melanoma
MCF7 breast = test system: MCF7 breast
MDA-MB-231 breast = test system: MDA-MB-231 breast
MDA-MB-435 = test system: MDA-MB-435
MDA-N = test system: MDA-N
MOLT-4 leukemia = test system: MOLT-4 leukemia
NCI-H226 lung = test system: NCI-H226 lung
NCI-H23 lung = test system: NCI-H23 lung
NCI-H460 lung = test system: NCI-H460 lung
NCI-H522 lung = test system: NCI-H522 lung
NCI/ADR-RES ovarian = test system: NCI/ADR-RES ovarian
OVCAR-3 ovarian = test system: OVCAR-3 ovarian
OVCAR-4 ovarian = test system: OVCAR-4 ovarian
OVCAR-5 ovarian = test system: OVCAR-5 ovarian
OVCAR-8 ovarian = test system: OVCAR-8 ovarian
PC-3 prostate = test system: PC-3 prostate
RPMI-8226 leukemia = test system: RPMI-8226 leukemia
RXF 393 renal = test system: RXF 393 renal
SF-268 CNS = test system: SF-268 CNS
SF-295 CNS = test system: SF-295 CNS
SF-539 CNS = test system: SF-539 CNS
SK-MEL-2 melanoma = test system: SK-MEL-2 melanoma
SK-MEL-28 melanoma = test system: SK-MEL-28 melanoma
SK-MEL-5 melanoma = test system: SK-MEL-5 melanoma
SK-OV-3 ovarian = test system: SK-OV-3 ovarian
SN12C renal = test system: SN12C renal
SNB-19 CNS = test system: SNB-19 CNS
SNB-75 CNS = test system: SNB-75 CNS
SNB-78 CNS = test system: SNB-78 CNS
SR leukemia = test system: SR leukemia
SW-620 colon = test system: SW-620 colon
T-47D breast = test system: T-47D breast
TK-10 renal = test system: TK-10 renal
U251 CNS = test system: U251 CNS
UACC-257 melanoma = test system: UACC-257 melanoma
UACC-62 melanoma = test system: UACC-62 melanoma
UO-31 renal = test system: UO-31 renal
XF 498 CNS = test system: XF 498 CNS
RXF-631 renal = test system: RXF-631 renal

SMILES: COc1ccc(CC2NCCc3cc(OC)c(OC)cc32)cc1Br (configuration not stated)
- TGI (786-0 renal): > 100 µM
- TGI (A498 renal): > 79.1 µM
- TGI (A549 NSCLC): > 100 µM
- TGI (ACHN renal): > 100 µM
- TGI (BT-549 breast): > 100 µM
- TGI (CAKI-1 renal): > 100 µM
- TGI (CCRF-CEM leukemia): > 85.3 µM
- TGI (COLO 205 colon): 32.6 µM
- TGI (DLD-1 colon): > 100 µM
- TGI (DMS 114 small cell lung): 52.9 µM
- TGI (DMS 273 small cell lung): 57.5 µM
- TGI (DU-145 prostate): > 100 µM
- TGI (EKVX NSCLC): > 100 µM
- TGI (HCC-2998 colon): 34.6 µM
- TGI (HCT-116 colon): 36.9 µM
- TGI (HCT-15 colon): > 100 µM
- TGI (HL-60(TB) leukemia): 28.1 µM
- TGI (HOP-18 NSCLC): > 100 µM
- TGI (HOP-62 NSCLC): > 100 µM
- TGI (HOP-92 NSCLC): 61.7 µM
- TGI (HS 578T breast): > 100 µM
- TGI (HT29 colon): 57.9 µM
- TGI (IGROV1 ovarian): > 100 µM
- TGI (K-562 leukemia): 45.6 µM
- TGI (KM12 colon): > 100 µM
- TGI (KM20L2 colon): > 100 µM
- TGI (LOX IMVI melanoma): 47.1 µM
- TGI (LXFL 529 NSCLC): > 100 µM
- TGI (M14 melanoma): 31 µM
- TGI (M19-MEL melanoma): 41.5 µM
- TGI (MALME-3M melanoma): 34.3 µM
- TGI (MCF7 breast): > 100 µM
- TGI (MDA-MB-231 breast): 57.3 µM
- TGI (MDA-MB-435): 60 µM
- TGI (MDA-N): > 100 µM
- TGI (MOLT-4 leukemia): 73.3 µM
- TGI (NCI-H226 lung): 73.9 µM
- TGI (NCI-H23 lung): 85.7 µM
- TGI (NCI-H460 lung): > 71.4 µM
- TGI (NCI-H522 lung): > 100 µM
- TGI (NCI/ADR-RES ovarian): > 100 µM
- TGI (OVCAR-3 ovarian): > 100 µM
- TGI (OVCAR-4 ovarian): > 100 µM
- TGI (OVCAR-5 ovarian): > 77.7 µM
- TGI (OVCAR-8 ovarian): > 100 µM
- TGI (PC-3 prostate): > 100 µM
- TGI (RPMI-8226 leukemia): 50.2 µM
- TGI (RXF 393 renal): 59.1 µM
- TGI (SF-268 CNS): > 100 µM
- TGI (SF-295 CNS): 86.7 µM
- TGI (SF-539 CNS): > 100 µM
- TGI (SK-MEL-2 melanoma): 61.6 µM
- TGI (SK-MEL-28 melanoma): 33.7 µM
- TGI (SK-MEL-5 melanoma): 19.9 µM
- TGI (SK-OV-3 ovarian): > 100 µM
- TGI (SN12C renal): > 100 µM
- TGI (SNB-19 CNS): > 100 µM
- TGI (SNB-75 CNS): > 83.2 µM
- TGI (SNB-78 CNS): > 100 µM
- TGI (SR leukemia): 74.6 µM
- TGI (SW-620 colon): > 70.5 µM
- TGI (T-47D breast): 63.1 µM
- TGI (TK-10 renal): > 89.8 µM
- TGI (U251 CNS): > 100 µM
- TGI (UACC-257 melanoma): 45.6 µM
- TGI (UACC-62 melanoma): > 77.5 µM
- TGI (UO-31 renal): > 100 µM
- TGI (XF 498 CNS): 47 µM

SMILES: O=C1CCC(O)=C1N=Nc1ccccc1
- TGI (786-0 renal): > 100 µM
- TGI (A498 renal): > 100 µM
- TGI (A549 NSCLC): > 100 µM
- TGI (ACHN renal): > 100 µM
- TGI (CAKI-1 renal): > 100 µM
- TGI (CCRF-CEM leukemia): > 100 µM
- TGI (COLO 205 colon): > 100 µM
- TGI (DLD-1 colon): > 100 µM
- TGI (DMS 114 small cell lung): > 100 µM
- TGI (DMS 273 small cell lung): > 100 µM
- TGI (EKVX NSCLC): > 100 µM
- TGI (HCC-2998 colon): > 100 µM
- TGI (HCT-116 colon): > 100 µM
- TGI (HCT-15 colon): > 100 µM
- TGI (HL-60(TB) leukemia): > 100 µM
- TGI (HOP-18 NSCLC): > 100 µM
- TGI (HOP-62 NSCLC): > 100 µM
- TGI (HOP-92 NSCLC): > 100 µM
- TGI (HT29 colon): > 100 µM
- TGI (IGROV1 ovarian): > 100 µM
- TGI (K-562 leukemia): > 100 µM
- TGI (KM12 colon): > 100 µM
- TGI (LOX IMVI melanoma): > 100 µM
- TGI (M14 melanoma): > 100 µM
- TGI (M19-MEL melanoma): > 100 µM
- TGI (MALME-3M melanoma): > 100 µM
- TGI (MOLT-4 leukemia): > 100 µM
- TGI (NCI-H226 lung): > 100 µM
- TGI (NCI-H23 lung): > 100 µM
- TGI (NCI-H460 lung): > 100 µM
- TGI (OVCAR-3 ovarian): > 100 µM
- TGI (OVCAR-4 ovarian): > 100 µM
- TGI (OVCAR-5 ovarian): > 100 µM
- TGI (OVCAR-8 ovarian): > 100 µM
- TGI (RXF 393 renal): > 100 µM
- TGI (RXF-631 renal): > 100 µM
- TGI (SF-268 CNS): > 100 µM
- TGI (SF-295 CNS): > 100 µM
- TGI (SF-539 CNS): > 100 µM
- TGI (SK-MEL-2 melanoma): > 100 µM
- TGI (SK-MEL-28 melanoma): > 100 µM
- TGI (SK-MEL-5 melanoma): > 100 µM
- TGI (SK-OV-3 ovarian): > 100 µM
- TGI (SN12C renal): > 100 µM
- TGI (SNB-19 CNS): > 100 µM
- TGI (SNB-75 CNS): > 100 µM
- TGI (SNB-78 CNS): > 100 µM
- TGI (SW-620 colon): > 100 µM
- TGI (TK-10 renal): > 100 µM
- TGI (U251 CNS): > 100 µM
- TGI (UACC-257 melanoma): > 100 µM
- TGI (UACC-62 melanoma): 74.1 µM
- TGI (UO-31 renal): > 100 µM

SMILES: O=C(NCO)NCOCn1c(=O)n(CO)c(=O)n(CO)c1=O
- TGI (786-0 renal): > 100 µM
- TGI (A498 renal): > 100 µM
- TGI (A549 NSCLC): > 100 µM
- TGI (ACHN renal): > 100 µM
- TGI (CAKI-1 renal): > 100 µM
- TGI (CCRF-CEM leukemia): 23.6 µM
- TGI (COLO 205 colon): > 71.8 µM
- TGI (DLD-1 colon): 64.4 µM
- TGI (DMS 114 small cell lung): 99.3 µM
- TGI (EKVX NSCLC): > 100 µM
- TGI (HCC-2998 colon): > 100 µM
- TGI (HCT-116 colon): 96.2 µM
- TGI (HCT-15 colon): 60.9 µM
- TGI (HL-60(TB) leukemia): 47.5 µM
- TGI (HOP-18 NSCLC): > 100 µM
- TGI (HOP-62 NSCLC): > 100 µM
- TGI (HT29 colon): 99.7 µM
- TGI (IGROV1 ovarian): > 100 µM
- TGI (K-562 leukemia): > 79.2 µM
- TGI (KM12 colon): > 62.8 µM
- TGI (KM20L2 colon): > 94.9 µM
- TGI (LOX IMVI melanoma): 37.3 µM
- TGI (LXFL 529 NSCLC): 42.8 µM
- TGI (M14 melanoma): 31.7 µM
- TGI (M19-MEL melanoma): > 66.3 µM
- TGI (MALME-3M melanoma): > 74 µM
- TGI (MOLT-4 leukemia): > 65.9 µM
- TGI (NCI-H226 lung): > 100 µM
- TGI (NCI-H23 lung): 36.3 µM
- TGI (NCI-H460 lung): > 94.8 µM
- TGI (OVCAR-3 ovarian): > 100 µM
- TGI (OVCAR-4 ovarian): > 77 µM
- TGI (OVCAR-5 ovarian): > 100 µM
- TGI (OVCAR-8 ovarian): > 100 µM
- TGI (RPMI-8226 leukemia): 68.4 µM
- TGI (RXF 393 renal): 30.8 µM
- TGI (RXF-631 renal): > 100 µM
- TGI (SF-268 CNS): > 80.8 µM
- TGI (SF-295 CNS): > 100 µM
- TGI (SF-539 CNS): > 100 µM
- TGI (SK-MEL-2 melanoma): 33.8 µM
- TGI (SK-MEL-28 melanoma): 45.1 µM
- TGI (SK-MEL-5 melanoma): > 83 µM
- TGI (SK-OV-3 ovarian): > 100 µM
- TGI (SN12C renal): > 100 µM
- TGI (SNB-19 CNS): > 31.6 µM
- TGI (SNB-75 CNS): > 100 µM
- TGI (SNB-78 CNS): > 73.9 µM
- TGI (SR leukemia): 81.9 µM
- TGI (SW-620 colon): 56.4 µM
- TGI (TK-10 renal): > 100 µM
- TGI (U251 CNS): > 100 µM
- TGI (UACC-257 melanoma): 99.4 µM
- TGI (UACC-62 melanoma): 36.8 µM
- TGI (UO-31 renal): > 100 µM
- TGI (XF 498 CNS): 55.5 µM

Reference: PubChem BioAssay (NCI)
